Measured values taken from US10765748B2, “Composition and methods for tethering bioactive peptides to metal oxide surfaces” (University of Akron, priority 2014, dated 2020).
Entries after “also recorded” stand apart in the source; their conditions may differ. Peptide text beside a SMILES is read from it. * marks the point of attachment. X1 = O=C(CCc1ccc(O)c(O)c1)NCCCC[C@H](NC(=O)CCc1ccc(O)c(O)c1)C(=O)*; FITC = O=C1OC2(c3ccc(O)cc3Oc3cc(O)ccc32)c2ccc(NC(=S)*)cc21; Dihydrocaffeoyl = O=C(CCc1ccc(O)c(O)c1)*

Legend:
[1] = XPS of immobilized modular peptides on TiO2 substrates and retention in HEPES buffer; type: physicochemical; conditions: HEPES buffer pH 7.4
Description: Immobilization of peptides onto TiO2 surface was accomplished by immersing the TiO2 substrates into the corresponding modular peptide solution and incubating it overnight at ambient temperature. The successful immobilization of OGP-Cat and OGP-(Cat)4 onto TiO2-coated substrates were confirmed by XPS. Nitrogen is the element contained only in the modular peptides while not in bare TiO2, as shown in the XPS survey scan of bare TiO2 and OGP-(Cat)4 in FIG. 9A. […] It is noted that the N1s peaks in FIG. 9B are normalized to the highest intensity (O1s) for comparison of the signal to noise ratio.
To quantify the increase in nitrogen due to adsorption of OGP-Cat and OGP-(Cat)4, the nitrogen content (N1s) was normalized with Ti content (Ti2p), and compared with TiO2 substrate after incubation in HEPES buffer overnight (TiO2 as control), as show in Table 2, below.
To study the stability of sequestered modular peptides on targeting surfaces, the modular peptide immobilized TiO2 substrates were immersed in 25 mM HEPES buffer (pH=7.4 at 25° C.) and incubated for different durations. The mean intensity of FITC-labeled OGP-Cat immobilized TiO2 substrates after incubation was quantified to detect the diffusion of FITC-labeled OGP-Cat into surrounding solution. (See FIG. 11). […]

[2] = QCM-d adsorption of catechol-functionalized dendrons to TiO2 surface; type: binding; conditions: for concentration to obtain ~6 Hz frequency shift: TiO2, 25° C., pH 7.4; for apparent disassociation constant Kd: 25° C., pH 7.4, single-site specific binding model; for maximum adsorption (Bmax): single-site specific binding model
Description: The adsorption processes of all molecules to TiO2 surfaces at 25° C. and pH 7.4 were monitored by quartz crystal microbalance with dissipation (QCM-d). (See Example 7). Multivalent binding effects that enhanced the binding affinity were clear. In FIG. 2, to obtain a similar level of adsorption, ˜6 Hz frequency shift, the concentration of monovalent ligand, OGP-Cat, was 13 μM, while that of tetravalent ligand, OGP-(Cat)4 and OGP-PEG-(Cat)4, was 0.32 and 0.16 μM, respectively due to the mass differences. A much smaller amount of sample (˜80-fold less) was needed for the tetravalent ligand OGP-PEG-(Cat)4 compared with the monovalent ligand OGP-Cat to achieve the same level (mass) of surface adsorption. […] Under similar conditions, the monovalent ligand was partially washed away. The adsorption kinetics were recorded by QCM-d, with regard to OGP-PEG-(Cat)4, and 2 hours were needed to reach the equilibrium state at a concentration of 0.16 μM.
To quantitatively compare the binding affinities of the multivalent binding ligands, their adsorption properties at several different concentrations were measured. The solutions at higher concentrations were switched to flow above the sensor, until the adsorption of previous solution at lower concentration reached the equilibrium state (the change in frequency shift is smaller than the signal fluctuation, 0.05 Hz/min), taking OGP-Cat as an example shown in FIG. 3A. In these experiments, the adsorption of OGP-Cat onto TiO2 surface at different concentrations was measured by QCM-d, while the concentration was increased sequentially (c1=0.068 μmol/L, c2=0.34 μmol/L, c3=1.8 μmol/L, c4=7.3 μmol/L, c5=13 μmol/L, and c6=34 μmol/L). At last the adsorbed layer was washed with 25 mM HEPES buffer. The flow rate was 0.150 mL/min. Three independent measurements (Sensors 1-3) are shown on FIG. 3A. The corresponding frequency shift was calculated using Sauerbrey Equation to get the adsorbed area mass. The adsorption isotherm of each molecule was drawn and fit with a single-site specific binding model to get the apparent disassociation constant (Kd) and maximum adsorption (Bmax) of OGP-Cat as in FIG. 3B and others in FIGS. 4A-F from the adsorbed area mass at the respective concentrations.
(§1) Quartz crystal microbalance with dissipation (QCM-d) was used to determine the binding isotherm for OGP-(Cat)4 on TiO2, Fe2O3, Fe3O4, ZrO2, CeO2, SiO2, and Au substrates. The AT cut sensors were purchased from Biolin Scientific AB (Sweden) and cleaned before use according to the protocol provided by the company. The sensor was excited at 5 MHz as its fundamental frequency. The frequency shift (Δf) and dissipation (ΔD) were measured at 3rd, 5th, 7th, 9th, 11th and 13th overtones. 25 mM HEPES buffer (pH=7.40 at 25° C.) was used as the flow medium. Sensors were mounted in the modules immediately after cleaning. […] Then solutions of catechol-bearing peptide (OGP-(Cat)4) in HEPES buffer were introduced and the flow continued until the adsorption reached its equilibrium state. If necessary, solutions at higher concentrations were introduced sequentially. Lastly, HEPES buffer was introduced again to wash the adsorbed layer. Three independent measurements were done simultaneously. The results are reported on FIG. 5.
The QCM-d measurements in Example 7 above may be used to calculate the adsorbed area mass. The adsorbed area mass was proportional to the frequency shift (Δf) and calculated by the Sauerbrey Equation. Sauerbrey Equation is
[formula] where C is the mass sensitivity constant with the value of 17.7 ng Hz^−1 cm^−2 for 5 MHz fundamental frequency crystal, n is the frequency overtone number, and n=7 was chosen to calculate the adsorption area mass. As long as the adsorbed mass is small compared to the crystal, sufficiently thin, and has limited viscoelastic coupling with the surrounding medium (ΔD<1×10^−6 per 10 Hz), this relationship is valid. […]

[3] = QCM-d adsorption of OGP-(Cat)4 to hydroxyapatite; type: binding; conditions: c=10 μM
Description: (§2) The adsorption of tetravalent binding ligand OGP-(Cat)4 to a wide range of materials was tested to identify common features of materials to which the catechol-bearing ligands of various embodiments of the present invention strongly bind. […] While not wanting to be bound by theory, it is believed that this is because the coordination bond between catechol and metals with empty d-orbitals or f-orbitals provides a stronger interaction than Hydrogen bonding. […] Therefore, it is believed that OGP-(Cat)4 will be highly useful for the functionalization of transition metal oxides.

[4] = QCM-d adsorption of OGP-(Cat)4 to CeO2; type: binding; conditions: c=1 μM
Description: as §2
as §1, with “If necessary, solutions at higher concentrations were introduced sequentially. Lastly, HEPES buffer was introduced again to wash the adsorbed layer. Three independent measurements were done simultaneously. The results are reported on FIG. 5.” left out

[5] = QCM-d adsorption of OGP-(Cat)4 to Al2O3; type: binding; conditions: c=10 μM
Description: as §2

[6] = QCM-d adsorption of OGP-(Cat)4 to iron oxide; type: binding; conditions: c=1 μM
Description: as §2
as §1, with “If necessary, solutions at higher concentrations were introduced sequentially. Lastly, HEPES buffer was introduced again to wash the adsorbed layer. Three independent measurements were done simultaneously. The results are reported on FIG. 5.” left out

[7] = QCM-d adsorption of OGP-(Cat)4 to ZrO2; type: binding; conditions: c=1 μM
Description: as §2
as §1, with “If necessary, solutions at higher concentrations were introduced sequentially. Lastly, HEPES buffer was introduced again to wash the adsorbed layer. Three independent measurements were done simultaneously. The results are reported on FIG. 5.” left out

[8] = QCM-d adsorption of OGP-(Cat)4 to SiO2; type: binding
Description: as §2
as §1, with “If necessary, solutions at higher concentrations were introduced sequentially. Lastly, HEPES buffer was introduced again to wash the adsorbed layer. Three independent measurements were done simultaneously. The results are reported on FIG. 5.” left out

[9] = QCM-d adsorption of OGP-(Cat)4 to gold; type: binding
Description: as §2
as §1, with “If necessary, solutions at higher concentrations were introduced sequentially. Lastly, HEPES buffer was introduced again to wash the adsorbed layer. Three independent measurements were done simultaneously. The results are reported on FIG. 5.” left out

[10] = Fluorescence intensity of FITC-labeled OGP-Cat immobilized on TiO2; type: physicochemical; conditions: 3 days in 25 mM HEPES buffer pH 7.4
Description: Fluorescein-labeled modular peptide (FITC-labeled OGP-Cat) was also synthesized to visualize the presence of the immobilized peptides on TiO2 surface using fluorescence microscopy. (See, Example 13). After immobilization of FITC-labeled OGP-Cat onto TiO2 surfaces, the fluorescence intensity was much stronger compared to the control sample, which incubating TiO2-coated substrates in a solution of FITC at identical concentration. […] See, FIGS. 10A-B.
To study the stability of sequestered modular peptides on targeting surfaces, the modular peptide immobilized TiO2 substrates were immersed in 25 mM HEPES buffer (pH=7.4 at 25° C.) and incubated for different durations. The mean intensity of FITC-labeled OGP-Cat immobilized TiO2 substrates after incubation was quantified to detect the diffusion of FITC-labeled OGP-Cat into surrounding solution. (See FIG. 11). […] It is believed that the mismatch of retention time for the monovalent ligands may be attributed to the sensitivity difference of XPS and fluorescence microscopy. […]
The florescence intensity of FITC-OGP-(Cat)n (n=1, 2, and 4) on TiO2, Fe2O3, Fe3O4, ZrO2, CeO2, SiO2, and Au substrates was viewed with an inverted IX81 Microscope (Olympus, Center Valley, Pa.) with mercury bulb excitation and the appropriate filters. […] The mean intensity was calculated based on at least 10 randomly chosen sites observed under the same conditions.

[11] = Live/Dead viability assay; type: cell-based; conditions: mouse; immobilized on TiO2 substrates, cultured 24 hours
Description: The toxicity of the dendron of the embodiments of the present invention was tested using mouse calvarial pre-osteoblast cells ([…]) cells. The MC3T3-E1 cells were seeded on the TiO2 substrates with immobilized FITC-labeled OGP-Cat and cultured for 24 hours. […] The cells were well spread on the peptide-bearing surfaces, which is a consistent with an adherent proliferating cell population. See also, Example 17.
MC3T3-E1 mouse preosteoblast (passage 17) were expanded and cultured in α-MEM media (Gibco, Life Technologies, Grand Island, N.Y.) supplemented with 10% fetal bovine serum (FBS) (Invitrogen), 100 units/mL penicillin (Invitrogen), and 100 μg/mL streptomycin (Invitrogen) at 37° C. in a 5% CO2 humidified atmosphere. The cells were subcultured every 3 days in the presence of 0.25% (w/v) trypsin and 0.5% (w/v) ethylenediaminetetraacetic acid tetrasodium salt (EDTA) solution. […]
Viability of the cell culture of Example 16 above was evaluated using a Live/Dead viability/cytotoxicity kit (Invitrogen, UK). […] The staining solution was removed and the samples were viewed under the IX81 fluorescence microscope (Olympus) with 494 nm (green, Calcein) and 528 nm (red, EthD-1) emission filters. For quantitative analysis a total of 250 cells were counted from each sample over 25 randomly chosen areas and the viable and non-viable cells counts were recorded.

SMILES	incubation time after which decrease of N1s signal was detected [1] [h]	concentration to obtain ~6 Hz frequency shift [2] [µM]	apparent disassociation constant Kd ([2]; TiO2 surface) [nM]	maximum adsorption (Bmax) ([2]; TiO2 surface) [ng/cm^2]	adsorption to hydroxyapatite (HA) [3]	binding to CeO2 [4]	adsorption to Al2O3 [5]	binding to iron oxide [6]	Kd ([2]; TiO2 surface) [nM]	binding to TiO2 ([2]; c=1 μM)	enhancement parameter β = Ka,multi/Ka,mono ([2]; multivalent vs monovalent ligand within set with or without PEG linkage)	coverage of binding sites / maximum adsorption on TiO2 ([2]; solution at 100×Kd (2.8 μM) or Kd (28 nmol/L)) [%]	binding to ZrO2 [7]	adsorption to SiO2 ([8]; c=1 μM)	adsorption to SiO2 ([8]; c=10 μM)	adsorption to gold ([9]; c=1 μM)	adsorption to Au ([9]; c=10 μM)	mean fluorescence intensity after incubation [10]	viability at 24 h [11] [%]
NCCCC[C@H](NC(=O)CCc1ccc(O)c(O)c1)C(=O)N[C@@H](Cc1ccc(O)cc1)C(=O)NCC(=O)N[C@@H](Cc1ccccc1)C(=O)NCC(=O)NCC(=O)O [OGP-Cat] (Dihydrocaffeoyl-KYGFGG-OH)	12	13	5700 ± 200	54 ± 4															
O=C(O)CNC(=O)CNC(=O)[C@H](Cc1ccccc1)NC(=O)CNC(=O)[C@H](Cc1ccc(O)cc1)NC(=O)[C@H](CCCCNC(=O)[C@H](CCCCNC(=O)CCc1ccc(O)c(O)c1)NC(=O)CCc1ccc(O)c(O)c1)NC(=O)[C@H](CCCCNC(=O)CCc1ccc(O)c(O)c1)NC(=O)CCc1ccc(O)c(O)c1 [OGP-(Cat)4] (Dihydrocaffeoyl-K(Dihydrocaffeoyl)K(X1)YGFGG-OH)	336	0.32	31 ± 3	160 ± 6	weakly adsorbed; also recorded: Limited adsorption	strongest binding	weakly adsorbed; also recorded: Limited adsorption	strong binding	31 ± 3	strongest binding	184	99	strongest binding	weak adsorption	weakly adsorbed; also recorded: Limited adsorption	some adsorption	relatively strongly adsorbed		
O=C(O)CNC(=O)CNC(=O)[C@H](Cc1ccccc1)NC(=O)CNC(=O)[C@H](Cc1ccc(O)cc1)NC(=O)[C@H](CCCCNC(=S)Nc1ccc2c(c1)C(=O)OC21c2ccc(O)cc2Oc2cc(O)ccc21)NC(=O)CCc1ccc(O)c(O)c1 [FITC-labeled OGP-Cat] (Dihydrocaffeoyl-K(FITC)YGFGG-OH)																		deceased by about a half	> 98
